# Measurements taken from PubChem BioAssay AID1845205 (Molecular Pharmacology Branch, DTP, NCI, 2023).
# Test system: MPNST multicellular tumor spheroids, viability % test/control
# Experiment: Anticancer human tumor MPNST cell line growth inhibition;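 further: spheroids exposed to agents for seven days after three days of growth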;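 on viability, T/C: luminescence signal used as surrogate for viable cell amount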
# Details: for IC50: curve of first compound; for viability, T/C: stronger effect = lower value
# Method in brief: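 Complex spheroids of malignant cells with endothelial cells and mesenchymal stem cells; agents alone or combined, from near clinical Cmax (or 10 microM if unknown) down in half-log steps, 0.25% DMSO final.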
structure (smiles),measurement,setting,value
COc1ccc([C@@H](O)c2cc(-c3ncnc4cc(N5CCOCC5)ccc34)c(F)cc2Cl)nn1 + COc1cc2c(cc1O)CCNC21CSC2c3c(OC(C)=O)c(C)c4c(c3C(COC1=O)N1C(O)C3Cc5cc(C)c(OC)c(O)c5C(C21)N3C)OCO4,IC50,second compound 30 pM,171 nM
same,IC50,second compound 94.9 pM,531 nM
same,IC50,second compound 0.0003 µM,645 nM
same,IC50,second compound 0.000949 µM,174 nM
same,IC50,second compound 0.003 µM,< 31.6 nM
same,"viability, T/C","second compound 30 pM, first compound 0.0316 µM",97.1%
same,"viability, T/C","second compound 30 pM, first compound 0.1 µM",72%
same,"viability, T/C","second compound 30 pM, first compound 0.316 µM",24.1%
same,"viability, T/C","second compound 30 pM, first compound 1 µM",12.8%
same,"viability, T/C","second compound 30 pM, first compound 3.16 µM",5.82%
same,"viability, T/C","second compound 30 pM, first compound 10 µM",3.35%
same,"viability, T/C","second compound 94.9 pM, first compound 0.0316 µM",113%
same,"viability, T/C","second compound 94.9 pM, first compound 0.1 µM",74.7%
same,"viability, T/C","second compound 94.9 pM, first compound 0.316 µM",70.9%
same,"viability, T/C","second compound 94.9 pM, first compound 1 µM",39.6%
same,"viability, T/C","second compound 94.9 pM, first compound 3.16 µM",8.1%
same,"viability, T/C","second compound 94.9 pM, first compound 10 µM",3.63%
same,"viability, T/C","second compound 0.0003 µM, first compound 0.0316 µM",89.4%
same,"viability, T/C","second compound 0.0003 µM, first compound 0.1 µM",70.9%
same,"viability, T/C","second compound 0.0003 µM, first compound 0.316 µM",92.8%
same,"viability, T/C","second compound 0.0003 µM, first compound 1 µM",28.8%
same,"viability, T/C","second compound 0.0003 µM, first compound 3.16 µM",9.77%
same,"viability, T/C","second compound 0.0003 µM, first compound 10 µM",2.97%
same,"viability, T/C","second compound 0.000949 µM, first compound 0.0316 µM",84.4%
same,"viability, T/C","second compound 0.000949 µM, first compound 0.1 µM",48.4%
same,"viability, T/C","second compound 0.000949 µM, first compound 0.316 µM",55.4%
same,"viability, T/C","second compound 0.000949 µM, first compound 1 µM",14.4%
same,"viability, T/C","second compound 0.000949 µM, first compound 3.16 µM",11.7%
same,"viability, T/C","second compound 0.000949 µM, first compound 10 µM",0.94%
same,"viability, T/C","second compound 0.003 µM, first compound 0.0316 µM",15.7%
same,"viability, T/C","second compound 0.003 µM, first compound 0.1 µM",16.1%
same,"viability, T/C","second compound 0.003 µM, first compound 0.316 µM",8.56%
same,"viability, T/C","second compound 0.003 µM, first compound 1 µM",4.27%
same,"viability, T/C","second compound 0.003 µM, first compound 3.16 µM",2.63%
same,"viability, T/C","second compound 0.003 µM, first compound 10 µM",0.51%
